# In US6921770B2 (priority 2000, dated 2005):
# System: rice blast fungi
# Type: in vivo, Pyricularia grisea
row,SMILES,Inhibiting Ratio (%) (at 250 ppm)
1,"COc1ccc(N=c2scc(CC(=O)Nc3ccc(Cl)cc3)n2C)cc1.Cl [Compound 118, 2-(4-methoxyphenylimino)-3-methyl-4-[N-(4-chlorophenyl)carbamoylmethyl]-1,3-thiazol-4-ine hydrochloride]",99%
2,"CCCCc1ccc(N=c2scc(CC(=O)Nc3ccc(Cl)cc3)n2C)cc1.Cl [Compound 124, 2-[4-(n-butyl)phenylimino]-3-methyl-4-[N-(4-chlorophenyl)carbamoylmethyl]-1,3-thiazol-4-ine hydrochloride]",93%
3,"Cl.Cn1c(CC(=O)Nc2ccc(Cl)cc2)csc1=Nc1cccc(F)c1 [Compound 129, 2-(3-fluorophenylimino)-3-methyl-4-[N-(4-chlorophenyl)carbamoylmethyl]-1,3-thiazol-4-ine hydrochloride]",96%
4,"Cl.Cn1c(CC(=O)Nc2ccc(Cl)cc2)csc1=Nc1ccc(Br)cc1 [Compound 130, 2-(4-bromophenylimino)-3-methyl-4-[N-(4-chlorophenyl)carbamoylmethyl]-1,3-thiazol-4-ine hydrochloride]",98%
5,"Cl.Cn1c(CC(=O)Nc2ccc(Cl)cc2)csc1=Nc1ccccc1-c1ccccc1 [Compound 131, 2-(2-phenylphenylimino)-3-methyl-4-[N-(4-chlorophenyl)carbamoylmethyl]-1,3-thiazol-4-ine hydrochloride]",96%
6,"Cl.Cn1c(CC(=O)Nc2ccc(Br)cc2)csc1=Nc1ccc(C(F)(F)F)cc1 [Compound 132, 2-(4-trifluoromethylphenylimino)-3-methyl-4-[N-(4-bromophenyl)carbamoylmethyl]-1,3-thiazol-4-ine hydrochloride]",99%
7,"Cl.Cn1c(CC(=O)Nc2ccc(Br)cc2)csc1=Nc1ccc(F)cc1F [Compound 133, 2-(2,4-difluorophenylimino)-3-methyl-4-[N-(4-bromophenyl)carbamoylmethyl]-1,3-thiazol-4-ine hydrochloride]",99%
8,"Cl.Cn1c(CC(=O)Nc2ccc(Br)cc2)csc1=Nc1cccc(Cl)c1F [Compound 134, 2-(3-chloro-2-fluorophenylimino)-3-methyl-4-[N-(4-bromophenyl)carbamoylmethyl]-1,3-thiazol-4-ine hydrochloride]",98%
9,"Cc1ccc(N=c2scc(CC(=O)Nc3ccc(Br)cc3)n2C)c(C)c1.Cl [Compound 135, 2-(2,4-dimethylphenylimino)-3-methyl-4-[N-(4-bromophenyl)carbamoylmethyl]-1,3-thiazol-4-ine hydrochloride]",98%
10,"Cl.Cn1c(CC(=O)Nc2ccc(Br)cc2)csc1=Nc1ccc(F)cc1 [Compound 136, 2-(4-fluorophenylimino)-3-methyl-4-[N-(4-bromophenyl)carbamoylmethyl]-1,3-thiazol-4-ine hydrochloride]",97%
11,"Cl.Cn1c(CC(=O)Nc2ccc(Br)cc2)csc1=Nc1cccc(Br)c1 [Compound 137, 2-(3-bromophenylimino)-3-methyl-4-[N-(4-bromophenyl)carbamoylmethyl]-1,3-thiazol-4-ine hydrochloride]",97%
12,"Cl.Cn1c(CC(=O)Nc2ccc(Br)cc2)csc1=Nc1cc(Cl)cc(Cl)c1 [Compound 138, 2-(3,5-dichlorophenylimino)-3-methyl-4-[N-(4-bromophenyl)carbamoylmethyl]-1,3-thiazol-4-ine hydrochloride]",95%
13,"Cl.Cn1c(CC(=O)Nc2ccc(Br)cc2)csc1=Nc1ccc(OC(F)(F)F)cc1 [Compound 139, 2-(4-trifluoromethoxyphenylimino)-3-methyl-4-[N-(4-bromophenyl)carbamoylmethyl]-1,3-thiazol-4-ine hydrochloride]",99%
14,"Cl.Cn1c(CC(=O)Nc2ccc(Br)cc2)csc1=Nc1ccc(F)cc1Cl [Compound 140, 2-(2-chloro-4-fluorophenylimino)-3-methyl-4-[N-(4-bromophenyl)carbamoylmethyl]-1,3-thiazol-4-ine hydrochloride]",99%
15,"Cl.Cn1c(CC(=O)Nc2ccc(Br)cc2)csc1=Nc1ccc(Oc2ccccc2)cc1 [Compound 141, 2-(4-phenoxyphenylimino)-3-methyl-4-[N-(4-bromophenyl)carbamoylmethyl]-1,3-thiazol-4-ine hydrochloride]",99%
16,"Cc1cc(Br)ccc1N=c1scc(CC(=O)Nc2ccc(Br)cc2)n1C.Cl [Compound 142, 2-(4-bromo-2-methylphenylimino)-3-methyl-4-[N-(4-bromophenyl)carbamoylmethyl]-1,3-thiazol-4-ine hydrochloride]",98%
17,"Cl.Cn1c(CC(=O)Nc2ccc(Br)cc2)csc1=Nc1ccc(Br)cc1 [Compound 143, 2-(4-bromophenylimino)-3-methyl-4-[N-(4-bromophenyl)carbamoylmethyl]-1,3-thiazol-4-ine hydrochloride]",95%
18,"Cl.Cn1c(CC(=O)Nc2ccc(Br)cc2)csc1=Nc1ccc([N+](=O)[O-])cc1 [Compound 144, 2-(4-nitrophenylimino)-3-methyl-4-[N-(4-bromophenyl)carbamoylmethyl]-1,3-thiazol-4-ine hydrochloride]",97%
19,"CCCCc1ccc(N=c2scc(CC(=O)Nc3ccc(Br)cc3)n2C)cc1.Cl [Compound 147, 2-[4-(n-butyl)phenylimino]-3-methyl-4-[N-(4-bromophenyl)carbamoylmethyl]-1,3-thiazol-4-ine hydrochloride]",96%
20,"Cl.Cn1c(CC(=O)Nc2ccc(Br)cc2)csc1=Nc1ccccc1F [Compound 148, 2-(2-fluorophenylimino)-3-methyl-4-[N-(4-bromophenyl)carbamoylmethyl]-1,3-thiazol-4-ine hydrochloride]",95%
21,"Cl.Cn1c(CC(=O)Nc2ccccc2F)csc1=Nc1ccc(F)c(Cl)c1 [Compound 149, 2-(3-chloro-4-fluorophenylimino)-3-methyl-4-[N-(2-fluorophenyl)carbamoylmethyl]-1,3-thiazol-4-ine hydrochloride]",95%
22,"Cl.Cn1c(CC(=O)Nc2ccccc2F)csc1=Nc1ccc(Cl)cc1F [Compound 150, 2-(4-chloro-2-fluorophenylimino)-3-methyl-4-[N-(2-fluorophenyl)carbamoylmethyl]-1,3-thiazol-4-ine hydrochloride]",96%
23,"CC(C)Oc1cc(N=c2scc(CC(=O)Nc3ccccc3F)n2C)c(F)cc1Cl.Cl [Compound 151, 2-(4-chloro-2-fluoro-5-isopropoxyphenylimino)-3-methyl-4-[N-(2-fluorophenyl)carbamoylmethyl]-1,3-thiazol-4-ine hydrochloride]",96%
24,"Cl.Cn1c(CC(=O)Nc2ccccc2F)csc1=Nc1cccc(Br)c1 [Compound 153, 2-(3-bromophenylimino)-3-methyl-4-[N-(2-fluorophenyl)carbamoylmethyl]-1,3-thiazol-4-ine hydrochloride]",99%
25,"Cc1ccc(N=c2scc(CC(=O)Nc3ccc(Cl)cc3)n2C)c(C)c1.Cl [Compound 154, 2-(2,4-dimethylphenylimino)-3-methyl-4-(N-(4-chlorophenyl)carbamoylmethyl)-1,3-thiazol-4-ine hydrochloride]",93%
